What was measured:
[1] = target: TrkA kinase (Homo sapiens, UniProt P04629); assay: TrkA kinase assay (mobility shift assay); assay type: biochemical; details: numeric values; read-out: Trk A Kinase IC50
Procedure, shortened: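 Ten-point compound series was preincubated 10 min at room temperature with TrkA, then FAM-peptide plus ATP added in HEPES pH 7.5/Brij-35 buffer and reacted at 28 °C before EDTA quench.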

[2] = Liver microsomes metabolic stability assay, human; assay type: in vitro ADME; details: human liver microsomes 0.5 mg/mL, 37° C.; for half-life at 2 μM: read-out: t1/2 Human
Protocol: (§1) Example 203 Liver Microsomes Metabolic Stability Assay
(§2) Pooled human liver microsomes (Cat. 452117) were purchased from Corning. Pooled male rat liver microsomes (Cat. R1000) and pooled male mouse liver microsomes (Cat. M1000) were purchased from XENOTECH. Microsomes were stored at −80° C.
(§3) 1) Make a master solution containing phosphate buffer, ultra-pure H2O and MgCl2 solution according to Table 14.
(§4) 2) Two separated experiments were performed as follows.
(§5) a) With NADPH: 10 μL of 20 mg/mL liver microsomes and 40 μL of 10 mM NADPH were added to the incubations. The final concentrations of microsomes and NADPH were 0.5 mg/mL and 1 mM, respectively.
(§6) b) Without NADPH: 10 μL of 20 mg/mL liver microsomes and 40 μL of ultra-pure H2O were added to the incubations. The final concentration of microsomes was 0.5 mg/mL.
(§7) 3) The reaction was started with the addition of 4 μL test compounds solutions or control compound solution (verapamil) at the final concentration of 2 μM and carried out at 37° C.
(§8) 4) Aliquots of 50 μL were taken from the reaction solution at 0, 15, 30, 45 and 60 min. The reaction solutions were stopped by the addition of 4 volumes of cold acetonitrile with 1S (100 nM alprazolam, 200 nM caffeine, 200 nM labetalol and 2 μM ketoprofen). Samples were centrifuged at 3,220 g for 40 minutes. Aliquot of 100 μL of the supernatant was mixed with 100 μL of ultra-pure H2O and then used for LC-MS/MS analysis. All experiments were performed in duplicate.
(§9) The slope value, k, was determined by linear regression of the natural logarithm of the remaining percentage of the parent drug vs. incubation time curve.
(§10) The in vitro half-life (in vitro t1/2) was determined from the slope value:
(§11) Conversion of the in vitro t1/2 (in min) into the in vitro intrinsic clearance (in vitro CLint, in μL/min/mg proteins) was done using the following equation (mean of duplicate determinations): […]
(§12) The control compound (verapamil) was included in the assay. Any value of the compounds that was not within the specified limits will be rejected and the experiment will be repeated.

[3] = Liver microsomes metabolic stability assay, rat; assay type: in vitro ADME; details: male, rat liver microsomes 0.5 mg/mL, 37° C.; for half-life at 2 μM: read-out: t1/2 Rat
Protocol: as §1, §2, §3, §4, §5, §6, §7, §8, §9, §10, §11, §12

[4] = Liver microsomes metabolic stability assay, mouse; assay type: in vitro ADME; details: male, mouse liver microsomes 0.5 mg/mL, 37° C.; for half-life at 2 μM: read-out: t1/2 Mouse
Protocol: as §1, §2, §3, §4, §5, §6, §7, §8, §9, §10, §11, §12

[5] = target: T1, Ba/F3-ETV6-NTRK3 (Homo sapiens, UniProt Q16288); assay: Ba/F3-ETV6-NTRK3 cells proliferation assay; assay type: cell-based; details: 72 h, CellTiter Glo
T1 construct: Ba/F3 cells with TPM3-NTRK1 or ETV6-NTRK3 fusion mutation gene stably overexpressed named Ba/F3-TPM3-NTRK1 and Ba/F3-ETV6-NTRK3; fused on or other part: P41212 (Transcription factor ETV6)
T1 sequence (Q16288 whole entry, the tested form may be a part): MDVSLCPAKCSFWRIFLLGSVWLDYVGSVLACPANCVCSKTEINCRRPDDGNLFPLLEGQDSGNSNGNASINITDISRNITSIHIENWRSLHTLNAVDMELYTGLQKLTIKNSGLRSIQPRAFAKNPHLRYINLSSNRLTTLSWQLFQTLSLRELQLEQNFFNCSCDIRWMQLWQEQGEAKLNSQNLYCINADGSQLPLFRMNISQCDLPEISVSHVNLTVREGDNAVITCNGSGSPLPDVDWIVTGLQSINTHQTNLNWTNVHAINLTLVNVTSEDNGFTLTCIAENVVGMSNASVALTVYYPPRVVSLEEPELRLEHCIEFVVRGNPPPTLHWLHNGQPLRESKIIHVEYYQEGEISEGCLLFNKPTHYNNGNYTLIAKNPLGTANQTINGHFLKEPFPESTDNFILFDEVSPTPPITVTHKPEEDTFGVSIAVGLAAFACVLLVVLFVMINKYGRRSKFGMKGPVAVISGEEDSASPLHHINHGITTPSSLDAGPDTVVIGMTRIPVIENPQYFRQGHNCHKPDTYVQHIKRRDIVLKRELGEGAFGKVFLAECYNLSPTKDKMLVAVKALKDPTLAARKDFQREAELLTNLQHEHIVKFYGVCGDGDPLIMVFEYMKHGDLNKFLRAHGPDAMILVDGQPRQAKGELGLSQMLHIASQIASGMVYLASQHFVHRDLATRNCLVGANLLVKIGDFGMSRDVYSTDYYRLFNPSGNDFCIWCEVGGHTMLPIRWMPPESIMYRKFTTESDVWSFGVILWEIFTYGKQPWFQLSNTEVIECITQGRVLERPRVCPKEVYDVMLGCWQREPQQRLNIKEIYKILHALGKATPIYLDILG
Protocol: Example 202 Ba/F3-TPM3-NTRK1 and Ba/F3-ETV6-NTRK3 cells proliferation assay
Cell line: Ba/F3 cells with TPM3-NTRK1 or ETV6-NTRK3 fusion mutation gene stably overexpressed named Ba/F3-TPM3-NTRK1 and Ba/F3-ETV6-NTRK3.
RPMI 1640 and 10% FBS and 1% PS and 2 ug/mL puromycin.
b) Collect cell to a 15 mL centrifuged tube, centrifuge at 1000 rpm for 5 min. Discard the supernatant, count, and make the cell density at 1.49×10^4 cells/mL, then place it in a 37° C., 5% CO2 incubator.
a) The test compound (20 mM stock solution) was diluted to 60 μM with 100% DMSO as starting concentration then 3-fold serial diluted with “9+0” concentrations. in a 96-well dilution plate (Thermo, Cat. No. 249944);
b) The above compound solution was diluted 1:20 times with culture medium to prepare a 10 fold working solution;
a) Take cells in log phase growth, centrifuge at 1000 rpm for 5 min, then resuspend the cells with culture medium, then count cells;
b) Cells were seeded to 96-well cell culture plate with density at 2000 cells/well;
a) Compounds prepared at step 2 were added to cell plate with 15 μL per well, the final concentrations were 300, 100, 33.33, 11.11, 3.70, 1.23, 0.41, 0.14, 0.05 and 0 nM, and the final concentration of DMSO was 0.5%. The blank control well was a culture medium (0.5% DMSO);
c) The cells were incubated for an additional 72 h in the incubator.
a) Remove the 96-well cell culture plate and add 50 μl of CTG reagent (CellTiter Glo kit, promega, Cat #G7573).
b) Plate was shaked for 2 min and then let it cool for 30 min at room temperature.
c) The Luminescence signal value was read using a PerkinElmer reader.
Experimental Data Analysis
Data were analyzed using GraphPad Prism 6.0 software to obtain a fitted curve of compound activity.
Fit the Compound IC50 from non-linear regression equation:
Y=Bottom+(Top-Bottom)/(1+10^((Log IC50-X)×HillSlope));
X: The log of the concentration of the compound; Y: Luminescence value.

Chain of TrkA kinase (P04629 33-796): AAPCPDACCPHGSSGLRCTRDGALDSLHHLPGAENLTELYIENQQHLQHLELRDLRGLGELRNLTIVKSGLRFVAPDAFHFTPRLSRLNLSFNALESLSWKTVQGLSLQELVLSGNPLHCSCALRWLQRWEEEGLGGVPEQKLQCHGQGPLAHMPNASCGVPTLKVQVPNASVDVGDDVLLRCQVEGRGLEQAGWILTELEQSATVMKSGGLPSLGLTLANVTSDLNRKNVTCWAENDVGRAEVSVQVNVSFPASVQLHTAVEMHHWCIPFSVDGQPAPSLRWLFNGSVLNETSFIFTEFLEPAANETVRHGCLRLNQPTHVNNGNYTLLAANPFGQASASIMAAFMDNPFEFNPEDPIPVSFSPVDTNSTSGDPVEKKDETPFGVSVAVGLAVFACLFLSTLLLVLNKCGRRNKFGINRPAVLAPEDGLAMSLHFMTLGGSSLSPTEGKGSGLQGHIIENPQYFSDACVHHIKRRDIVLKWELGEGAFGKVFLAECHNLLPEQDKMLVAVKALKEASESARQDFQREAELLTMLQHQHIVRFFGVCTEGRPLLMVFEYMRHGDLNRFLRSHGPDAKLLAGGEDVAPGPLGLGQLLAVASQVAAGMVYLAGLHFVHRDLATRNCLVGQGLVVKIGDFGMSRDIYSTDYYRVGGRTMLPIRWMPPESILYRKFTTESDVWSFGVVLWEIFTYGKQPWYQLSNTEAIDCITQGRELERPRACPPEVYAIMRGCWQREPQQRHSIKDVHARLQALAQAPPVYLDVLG

Structure (SMILES) | IC50 [1] [nM] | microsomal CLint at 2 μM [2] [µL/min/mg] | half-life at 2 μM [2] [h] | microsomal CLint at 2 μM [3] [µL/min/mg] | half-life at 2 μM [3] [h] | microsomal CLint at 2 μM [4] [µL/min/mg] | half-life at 2 μM [4] [h] | IC50 [5] [nM]
Fc1ccc(F)c([C@H]2CCCN2c2ccn3ncc(-c4nnc(-c5ccncc5)[nH]4)c3n2)c1 [Compound 8, (R)-5-(2-(2,5-difluorophenyl)pyrrolidin-1-yl)-3-(5-(pyridin-4-yl)-4H-1,2,4-triazol-3-yl)pyrazolo[1,5-a]pyrimidine] |  |  |  |  |  |  |  | 1.55
Fc1ccc(F)c([C@H]2CCCN2c2ccn3ncc(-c4nc5cc(OC(F)(F)F)ccc5[nH]4)c3n2)c1 [Compound 71, (R)-5-(2-(2,5-difluorophenyl)pyrrolidin-1-yl)-3-(5-(trifluoromethoxy)-1H-benzo[d]imidazol-2-yl)pyrazolo[1,5-a]pyrimidine] | 27.1 | 17 | 1.36 | 12.2 | 1.89 | 10.8 | 2.14 | 
Fc1ccc(F)c([C@H]2CCCN2c2ccn3ncc(-c4nc5cc6c(cc5[nH]4)OC(F)(F)O6)c3n2)c1 [Compound 79, (R)-6-(5-(2-(2,5-difluorophenyl)pyrrolidin-1-yl)pyrazolo[1,5-a]pyrimidin-3-yl)-2,2-difluoro-5H-[1,3]dioxolo[4′,5′:4,5]benzo[1,2-d]imidazole] | 11.9 | 10.2 | 2.26 | 10.8 | 2.14 | 10 | 2.31 | 
Fc1ccc(F)c([C@H]2CCCN2c2ccn3ncc(-c4nc5cc(Cl)c(OC(F)(F)F)cc5[nH]4)c3n2)c1 [Compound 92, (R)-3-(5-chloro-6-(trifluoromethoxy)-1H-benzo[d]imidazol-2-yl)-5-(2-(2,5-difluorophenyl)pyrrolidin-1-yl)pyrazolo[1,5-a]pyrimidine] | 20.7 | 20.4 | 1.13 | 10.2 | 2.26 | 5.6 | 4.12 | 
Fc1ccc(F)c([C@H]2CCCN2c2ccn3ncc(-c4nc5ccc(OC(F)(F)F)cc5o4)c3n2)c1 [Compound 80, (R)-2-(5-(2-(2,5-difluorophenyl)pyrrolidin-1-yl)pyrazolo[1,5-a]pyrimidin-3-yl)-6-(trifluoromethoxy)benzo[d]oxazole] | 23.6 | 2.4 | 9.62 | 7 | 3.3 | 8.4 | 2.75 | 

More lines, in order of falling IC50 [1], values ahead:

IC50 [1] [nM] | microsomal CLint at 2 μM [2] [µL/min/mg] | half-life at 2 μM [2] [h] | microsomal CLint at 2 μM [3] [µL/min/mg] | half-life at 2 μM [3] [h] | microsomal CLint at 2 μM [4] [µL/min/mg] | half-life at 2 μM [4] [h] | IC50 [5] [nM] | Structure (SMILES)
3.2 | 16.8 | 1.38 | 34 | 0.679 | 27.4 | 0.843 |  | COc1cc2[nH]c(-c3cnn4ccc(N5CCC[C@@H]5c5cc(F)ccc5F)nc34)nc2cc1Cl [Compound 112, (R)-3-(5-chloro-6-methoxy-1H-benzo[d]imidazol-2-yl)-5-(2-(2,5-difluorophenyl)pyrrolidin-1-yl)pyrazolo[1,5-a]pyrimidine]
2.6 | 23 | 1 | 40.5 | 0.57 | 25.9 | 0.892 |  | C[C@@](O)(c1nnc(-c2cnn3ccc(N4CCC[C@@H]4c4cc(F)ccc4F)nc23)[nH]1)C(F)(F)F [Compound 26, (R)-2-(5-(5-((R)-2-(2,5-difluorophenyl)pyrrolidin-1-yl)pyrazolo[1,5-a]pyrimidin-3-yl)-4H-1,2,4-triazol-3-yl)-1,1,1-trifluoropropan-2-ol]
1.14 | 4.4 | 5.25 | 19.2 | 1.2 | 4.6 | 5.02 |  | Fc1ccc(F)c([C@H]2CCCN2c2ccn3ncc(-c4nnc(-c5ccc6c(c5)CCNC6)[nH]4)c3n2)c1 [Compound 36, (R)-6-(5-(5-(2-(2,5-difluorophenyl)pyrrolidin-1-yl)pyrazolo[1,5-a]pyrimidin-3-yl)-4H-1,2,4-triazol-3-yl)-1,2,3,4-tetrahydroisoquinoline]
0.7 | 37 | 0.624 | 29.4 | 0.786 | 32 | 0.722 |  | Fc1ccc(F)c([C@H]2CCCN2c2ccn3ncc(-c4nc5cc6c(cc5[nH]4)OCCO6)c3n2)c1 [Compound 96, (R)-2-(5-(2-(2,5-difluorophenyl)pyrrolidin-1-yl)pyrazolo[1,5-a]pyrimidin-3-yl)-6,7-dihydro-1H-[1,4]dioxino[2′,3′:4,5]benzo[1,2-d]imidazole]
0.66 | 21.2 | 1.09 | 22.2 | 1.04 | 15.6 | 1.48 |  | Fc1ccc(F)c([C@H]2CCCN2c2ccn3ncc(-c4nc5cnncc5[nH]4)c3n2)c1 [Compound 76, (R)-2-(5-(2-(2,5-difluorophenyl)pyrrolidin-1-yl)pyrazolo[1,5-a]pyrimidin-3-yl)-1H-imidazo[4,5-d]pyridazine]
0.44 | 5.6 | 4.12 | 1.4 | 16.5 | 0.8 | 28.9 |  | COc1cc2nc(-c3cnn4ccc(N5CCC[C@@H]5c5cc(F)ccc5F)nc34)[nH]c2cc1C(=O)O [Compound 90, (R)-2-(5-(2-(2,5-difluorophenyl)pyrrolidin-1-yl)pyrazolo[1,5-a]pyrimidin-3-yl)-5-methoxy-1H-benzo[d]imidazole-6-carboxylic acid]
0.27 | 12.6 | 1.83 | 17.2 | 1.34 | 24 | 0.963 |  | Fc1ccc(F)c([C@H]2CCCN2c2ccn3ncc(-c4nc5cnccc5[nH]4)c3n2)c1 [Compound 65, (R)-2-(5-(2-(2,5-difluorophenyl)pyrrolidin-1-yl)pyrazolo[1,5-a]pyrimidin-3-yl)-1H-imidazo[4,5-c]pyridine]

From US20210395256A1, “TYROSINE KINASE INHIBITORS, COMPOSITIONS AND METHODS THERE OF” (Betta Pharmaceuticals Co., Ltd., priority 2018, published 2021)
